# Test: Compound solubility in water
# Type: physicochemical
row,Compound,solubility
1,Cc1cc(-c2cc(Cl)ccn2)nc2c(C(=O)NC(C3CC3)C(F)(F)F)cnn12 (centres unmarked) [III-207],0.6 µg/mL
2,Cc1cc(-c2ccc(Cl)cn2)nc2c(C(=O)NC(C3CC3)C(F)(F)F)cnn12 (centres unmarked) [III-208],0.04 µg/mL
3,Cc1cc(-c2nccs2)nc2c(C(=O)NC(C3CC3)C(F)(F)F)cnn12 (centres unmarked) [III-209],1.2 µg/mL
4,Cc1cc(-c2ccc3c(c2)OCO3)nc2c(C(=O)N[C@@H](C)C3CC3)cnn12 [III-210],2.4 µg/mL
5,Cc1cc(-c2ccccc2C#N)nc2c(C(=O)NC(C3CC3)C(F)(F)F)cnn12 (centres unmarked) [III-211],0.2 µg/mL
6,Cc1cc(-c2ccccc2C#N)nc2c(C(=O)N[C@H](C)C(F)(F)F)cnn12 [III-212],0.7 µg/mL
7,Cc1cc(-c2ccccc2C#N)nc2c(C(=O)N[C@@H](C)C(F)(F)F)cnn12 [III-213],0.6 µg/mL
8,Cc1cc(-c2cc(C)n3ncc(C(=O)NC(C4CC4)C(F)(F)F)c3n2)sn1 (centres unmarked) [III-214],2.3 µg/mL
9,Cc1cc(-c2cc(C)n3ncc(C(=O)N[C@H](C4CC4)C(F)(F)F)c3n2)sn1 [III-215],0.3 µg/mL
10,Cc1cc(-c2cc(C)n3ncc(C(=O)N[C@@H](C4CC4)C(F)(F)F)c3n2)sn1 [III-216],0.9 µg/mL
11,Cc1cc(-c2cccc3ncoc23)nc2c(C(=O)N[C@@H](C)C3CC3)cnn12 [III-217],3.2 µg/mL
12,Cc1cc(-c2cccc3ncoc23)nc2c(C(=O)NC(C)(C)C(F)(F)F)cnn12 [III-219],2.7 µg/mL
13,Cc1cc(-c2ccc3scnc3c2)nc2c(C(=O)NC(C)C(F)(F)F)cnn12 (centres unmarked) [III-220],0.1 µg/mL
14,Cc1cc(-c2cccc3ncsc23)nc2c(C(=O)NC(C)C(F)(F)F)cnn12 (centres unmarked) [III-221],0.2 µg/mL
15,Cc1cc(-c2cccc3ncsc23)nc2c(C(=O)N[C@@H](C)C3CC3)cnn12 [III-222],0.6 µg/mL
16,Cc1cc(-c2cccc3ncoc23)nc2c(C(=O)NC(C)(C)C3CC3)cnn12 [III-223],0.2 µg/mL
17,CCc1cc(N2CCN(C(C)C)C2=O)nc2c(C(=O)NC(C3CC3)C(F)(F)F)cnn12 (centres unmarked) [III-224],1.2 µg/mL
18,Cc1cc(N2CCN(C(C)C)C2=O)nc2c(C(=O)NC(C3CC3)C(F)(F)F)cnn12 (centres unmarked) [III-225],19.3 µg/mL
19,CCc1cc(N2CCN(C(C)C)C2=O)nc2c(C(=O)NC(C)C(F)(F)F)cnn12 (centres unmarked) [III-226],5.9 µg/mL
20,Cc1cc(N2CCN(C(C)C)C2=O)nc2c(C(=O)NC(C)C(F)(F)F)cnn12 (centres unmarked) [III-227],9.4 µg/mL
21,Cc1cc(N2CCNC2=O)nc2c(C(=O)NC(C3CC3)C(F)(F)F)cnn12 (centres unmarked) [III-228],2.4 µg/mL
22,CCc1cc(N2CCN(C(C)C)C2=O)nc2c(C(=O)NC(C)(C)C)cnn12 [III-229],13.5 µg/mL
23,Cc1cc(N2CCN(C(C)C)C2=O)nc2c(C(=O)NC(C)(C)C3CC3)cnn12 [III-230],2.6 µg/mL
24,Cc1cc(N2CCN(C(C)C)C2=O)nc2c(C(=O)NC(C)(C)C(F)(F)F)cnn12 [III-231],3 µg/mL
25,Cc1cc(N2CCN(C(C)C)C2=O)nc2c(C(=O)NC(C)(C)C)cnn12 [III-232],23.7 µg/mL
26,Cc1cc(N2CCN(CC(F)(F)F)C2=O)nc2c(C(=O)NC(C3CC3)C(F)(F)F)cnn12 (centres unmarked) [III-233],0.7 µg/mL

row,Compound,solubility
1,Cc1cc(-c2cccc(Cl)n2)nc2c(C(=O)NC(C)C(F)(F)F)cnn12 (centres unmarked) [III-234],0.2 µg/mL
2,Cc1cc(-c2cccc(Cl)n2)nc2c(C(=O)N[C@H](C)C(F)(F)F)cnn12 [III-235],6.4 µg/mL
3,Cc1cc(-c2cccc(Cl)n2)nc2c(C(=O)N[C@@H](C)C(F)(F)F)cnn12 [III-236],5.9 µg/mL
4,Cc1cc(-c2cccc(Cl)n2)nc2c(C(=O)NC(C3CC3)C(F)(F)F)cnn12 (centres unmarked) [III-237],0.05 µg/mL
5,CCc1cc(N2CCOCC2)nc2c(C(=O)NC(C3CC3)C(F)(F)F)cnn12 (centres unmarked) [III-238],13.5 µg/mL
6,Cc1cc(-c2ccon2)nc2c(C(=O)NC(C3CC3)C(F)(F)F)cnn12 (centres unmarked) [III-239],0.8 µg/mL
7,Cc1oc(C#N)cc1-c1cc(C)n2ncc(C(=O)NC(C3CC3)C(F)(F)F)c2n1 (centres unmarked) [III-242],3.2 µg/mL
8,Cc1cc(C#N)c(-c2cc(C)n3ncc(C(=O)NC(C4CC4)C(F)(F)F)c3n2)o1 (centres unmarked) [III-245],0.008 µg/mL
9,Cc1ncc(-c2cc(C)n3ncc(C(=O)NC(C4CC4)C(F)(F)F)c3n2)o1 (centres unmarked) [III-246],3.1 µg/mL
10,Cc1ncc(-c2cc(C)n3ncc(C(=O)N[C@H](C4CC4)C(F)(F)F)c3n2)o1 [III-247],0.6 µg/mL
11,Cc1ncc(-c2cc(C)n3ncc(C(=O)N[C@@H](C4CC4)C(F)(F)F)c3n2)o1 [III-248],0.7 µg/mL
12,Cc1nc(-c2cc(C)n3ncc(C(=O)NC(C4CC4)C(F)(F)F)c3n2)co1 (centres unmarked) [III-249],0.6 µg/mL
13,Cc1cc(-c2occc2C#N)nc2c(C(=O)NC(C3CC3)C(F)(F)F)cnn12 (centres unmarked) [III-250],0.4 µg/mL
14,Cc1nc(-c2cc(C)n3ncc(C(=O)NC(C)(C)C4CC4)c3n2)co1 [III-251],3.9 µg/mL
15,Cc1ncc(-c2cc(C)n3ncc(C(=O)NC(C)(C)C4CC4)c3n2)o1 [III-252],11 µg/mL
16,Cc1cnc(-c2cc(C)n3ncc(C(=O)NC(C4CC4)C(F)(F)F)c3n2)o1 (centres unmarked) [III-253],0.7 µg/mL
17,Cc1coc(-c2cc(C)n3ncc(C(=O)NC(C4CC4)C(F)(F)F)c3n2)n1 (centres unmarked) [III-254],0.6 µg/mL
18,Cc1coc(-c2cc(C)n3ncc(C(=O)N[C@H](C4CC4)C(F)(F)F)c3n2)n1 [III-255],1.6 µg/mL
19,Cc1coc(-c2cc(C)n3ncc(C(=O)N[C@@H](C4CC4)C(F)(F)F)c3n2)n1 [III-256],0.5 µg/mL
20,Cc1cc(N2CCCN(C(C)C)C2=O)nc2c(C(=O)NC(C3CC3)C(F)(F)F)cnn12 (centres unmarked) [III-257],11.6 µg/mL
21,Cc1cc(N2CCCN(C(C)C)C2=O)nc2c(C(=O)NC(C)(C)C)cnn12 [III-258],26.4 µg/mL
22,Cc1cc(N2CCCN(C(C)C)C2=O)nc2c(C(=O)NC(C)C(F)(F)F)cnn12 (centres unmarked) [III-259],25.8 µg/mL
23,Cc1cc(N2CCCN(CC(F)(F)F)C2=O)nc2c(C(=O)NC(C3CC3)C(F)(F)F)cnn12 (centres unmarked) [III-260],21 µg/mL
24,Cc1cc(N2CCCN(C(C)C)C2=O)nc2c(C(=O)NC(C)(C)C3CC3)cnn12 [III-261],23 µg/mL
25,Cc1cc(N2CCCN(C(C)C)C2=O)nc2c(C(=O)NC(C)(C)C(F)(F)F)cnn12 [III-262],19 µg/mL
26,COc1ccncc1-c1cc(C)n2ncc(C(=O)NC(C3CC3)C(F)(F)F)c2n1 (centres unmarked) [III-263],8.9 µg/mL

row,Compound,solubility
1,Cc1cc(-c2ccc(F)o2)nc2c(C(=O)NC(C3CC3)C(F)(F)F)cnn12 (centres unmarked) [III-264],0.4 µg/mL
2,COc1cncc(-c2cc(C)n3ncc(C(=O)NC(C4CC4)C(F)(F)F)c3n2)c1 (centres unmarked) [III-265],1.3 µg/mL
3,COc1ccc(-c2cc(C)n3ncc(C(=O)NC(C4CC4)C(F)(F)F)c3n2)cn1 (centres unmarked) [III-268],1.2 µg/mL
4,COc1ccncc1-c1cc(C)n2ncc(C(=O)NC(C)C(F)(F)F)c2n1 (centres unmarked) [III-269],12.7 µg/mL
5,COc1cncc(-c2cc(C)n3ncc(C(=O)NC(C)C(F)(F)F)c3n2)c1 (centres unmarked) [III-270],4.9 µg/mL
6,COc1ccc(-c2cc(C)n3ncc(C(=O)NC(C)C(F)(F)F)c3n2)cn1 (centres unmarked) [III-271],2.3 µg/mL
7,COc1ccc(-c2cc(C)n3ncc(C(=O)N[C@H](C)C(F)(F)F)c3n2)cn1 [III-272],3.1 µg/mL
8,COc1ccc(-c2cc(C)n3ncc(C(=O)N[C@@H](C)C(F)(F)F)c3n2)cn1 [III-273],3.4 µg/mL
9,Cc1ccncc1-c1cc(C)n2ncc(C(=O)NC(C3CC3)C(F)(F)F)c2n1 (centres unmarked) [III-274],2.3 µg/mL
10,Cc1cncc(-c2cc(C)n3ncc(C(=O)NC(C4CC4)C(F)(F)F)c3n2)c1 (centres unmarked) [III-275],2.6 µg/mL
11,Cc1cncc(-c2cc(C)n3ncc(C(=O)N[C@H](C4CC4)C(F)(F)F)c3n2)c1 [III-276],1.8 µg/mL
12,Cc1cncc(-c2cc(C)n3ncc(C(=O)N[C@@H](C4CC4)C(F)(F)F)c3n2)c1 [III-277],5.3 µg/mL
13,Cc1ccc(-c2cc(C)n3ncc(C(=O)NC(C4CC4)C(F)(F)F)c3n2)cn1 (centres unmarked) [III-278],0.5 µg/mL
14,Cc1ccc(-c2cc(C)n3ncc(C(=O)N[C@H](C4CC4)C(F)(F)F)c3n2)cn1 [III-279],1.5 µg/mL
15,Cc1ccc(-c2cc(C)n3ncc(C(=O)N[C@@H](C4CC4)C(F)(F)F)c3n2)cn1 [III-280],1.3 µg/mL
16,Cc1ccncc1-c1cc(C)n2ncc(C(=O)NC(C)C(F)(F)F)c2n1 (centres unmarked) [III-281],12.5 µg/mL
17,Cc1cncc(-c2cc(C)n3ncc(C(=O)NC(C)C(F)(F)F)c3n2)c1 (centres unmarked) [III-282],6.2 µg/mL
18,Cc1ccc(-c2cc(C)n3ncc(C(=O)NC(C)C(F)(F)F)c3n2)cn1 (centres unmarked) [III-283],12.7 µg/mL
19,Cc1cc(-c2cnccc2C(F)(F)F)nc2c(C(=O)NC(C)C(F)(F)F)cnn12 (centres unmarked) [III-284],13.2 µg/mL
20,Cc1cc(-c2cncc(C(F)(F)F)c2)nc2c(C(=O)NC(C)C(F)(F)F)cnn12 (centres unmarked) [III-285],1.2 µg/mL
21,Cc1cc(-c2cncc(C(F)(F)F)c2)nc2c(C(=O)N[C@H](C)C(F)(F)F)cnn12 [III-286],2.1 µg/mL
22,Cc1cc(-c2cncc(C(F)(F)F)c2)nc2c(C(=O)N[C@@H](C)C(F)(F)F)cnn12 [III-287],2.4 µg/mL
23,Cc1cc(-c2ccc(C(F)(F)F)nc2)nc2c(C(=O)NC(C)C(F)(F)F)cnn12 (centres unmarked) [III-288],1.4 µg/mL
24,Cc1cc(-c2ccc3c(c2)OCO3)nc2c(C(=O)NC(C)C(F)(F)F)cnn12 (centres unmarked) [III-289],0.8 µg/mL
25,Cc1cc(-c2cncc(Cl)c2)nc2c(C(=O)N[C@@H](C)C3CC3)cnn12 [III-290],2.1 µg/mL

# — patent US9840510B1, “Pyrazolo[1,5-a]pyrimidinyl carboxamide compounds and their use in the treatment of medical disorders” (Lysosomal Therapeutics Inc., priority 2016, dated 2017)
